For one experiment, the target named is T1, p38 MAP Kinase a (Homo sapiens, UniProt Q16539).
T1 construct: purchased Upstate (Dundee UK)
The experiment in a line: p38 MAP Kinase activity, radiometric filter-binding assay (Upstate). The format is biochemical. The settings on record: IC50 range; ATP at or close to Km; read-out: Inhibitor activity versus p38 MAPKa. Summed up:
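Human p38 MAP kinase α (5-10 mU) with 0.33 mg/mL myelin basic protein, 25 mM Tris pH 7.5, 0.002 mM EGTA, 10 mM Mg acetate and [γ-33P]ATP at or near Km; 40 min at RT. Phosphoric acid stop, P30 filter binding and scintillation counting; IC50 from 9-step ⅓-log dilutions from 10 μM top concentration, duplicates.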

In another experiment the test system is THP-1 TNFα release. The experiment in a line: LPS-stimulation of THP-1 cells, TNF-α by ELISA. The settings on record: IC50 range, LPS 1 μg/ml, 6 hrs, read-out: Inhibitor activity versus THP-1 TNFα release. The format is cell-based. As for the experimental part:
THP-1 cells were plated in 100 μl at a density of 4×10^4 cells/well in V-bottomed 96 well tissue culture treated plates and incubated at 37° C. in 5% CO2 for 16 hrs. 2 hrs after the addition of the inhibitor in […], of tissue culture media, the cells were stimulated with LPS (E. coli strain 005:B5, Sigma) at a final concentration of 1 μg/ml and incubated at 37° C. in 5% CO2 for 6 hrs. TNF-α levels were measured from cell-free supernatants by sandwich ELISA (R&D Systems #QTA00B).

Structures can show the parent of a compound that is named as a salt. Where two headings read alike, the source gives them in different places.

T1 sequence (Q16539 whole entry): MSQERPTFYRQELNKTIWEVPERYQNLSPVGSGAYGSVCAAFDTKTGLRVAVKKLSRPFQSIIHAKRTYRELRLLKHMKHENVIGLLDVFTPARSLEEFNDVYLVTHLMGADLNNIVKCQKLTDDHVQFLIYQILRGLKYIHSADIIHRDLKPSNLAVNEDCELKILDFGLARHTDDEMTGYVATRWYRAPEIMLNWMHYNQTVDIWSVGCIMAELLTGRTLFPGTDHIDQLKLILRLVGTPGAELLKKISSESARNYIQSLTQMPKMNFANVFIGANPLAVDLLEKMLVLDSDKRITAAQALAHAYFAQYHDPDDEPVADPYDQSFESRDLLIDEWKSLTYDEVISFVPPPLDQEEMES

As to `Nc1c(C(=O)c2ccc(F)cc2)ccc(=O)n1-c1c(F)cc(OC2CCC(N[C@H](C(=O)OC3CCCC3)c3ccccc3)CC2)cc1F` (stereo partly drawn) [Example 32, Cyclopentyl(2S)-[(4-{4-[6-amino-5-(4-fluorobenzoyl)-2-oxopyridin-1(2H)-yl]-3,5-difluorophenoxy}cyclohexyl)amino](phenyl)acetate], the IC50 at p38 MAP Kinase a was less than 100 nM; in the experiment with THP-1 TNFα release (Homo sapiens, THP-1), less than 100 nM.
As for `Nc1c(C(=O)c2ccc(F)cc2)ccc(=O)n1C1CCC(N[C@@H](Cc2ccccc2)C(=O)OC2CCCC2)CC1` (single isomer, unassigned) [Example 34], the IC50 on p38 MAP Kinase a is 100 to 1000 nM; with THP-1 TNFα release (Homo sapiens, THP-1) it was greater than 1000 nM.
The corresponding values for `CC(C)C[C@H](NCCCOc1ccc(-n2c(N)c(C(=O)c3ccc(F)cc3F)ccc2=O)cc1)C(=O)OC(C)(C)C` [Example 39, tert-Butyl(S)-2-(3-{4-[6-Amino-5-(2,4-difluorobenzoyl)-2-oxo-2H-pyridin-1-yl]phenoxy}propylamino)-4-methyl pentanoate] are less than 100 nM and 100 to 1000 nM.
Take `Nc1c(C(=O)c2ccc(F)cc2)ccc(=O)n1-c1c(F)cc(OCCCN[C@H](C(=O)OC2CCCC2)c2ccccc2)cc1F` [Example 13, Cyclopentyl(S)-(3-{4-[6-Amino-5-(4-fluorobenzoyl)-2-oxo-2H-pyridin-1-yl]-3,5-difluorophenoxy}propylamino)phenylacetate]: the IC50 on p38 MAP Kinase a was less than 100 nM; in the experiment with THP-1 TNFα release (Homo sapiens, THP-1) it was less than 100 nM.
For the compound “tert-Butyl(S)-(3-{4-[6-Amino-5-(4-difluoro benzoyl)-2-oxo-2H-pyridin-1-yl]-3,5-difluorophenoxy}propylamino)phenyl acetate [Example 45]”, the IC50 at p38 MAP Kinase a and with THP-1 TNFα release was less than 100 nM throughout.
Consider “Cyclopentyl(S)-2-{4-[6-Amino-5-(2,4-fluorobenzoyl)-2-oxo-2H-pyridin-1-yl]-3,5-difluorobenzylamino}-3-phenylpropionate [Example 10]”, for which the IC50 at p38 MAP Kinase a was less than 100 nM; in the experiment with THP-1 TNFα release it was 100 to 1000 nM.
In the case of `COc1ccc(C(=O)c2ccc(=O)n(-c3ccc(CCN[C@@H](CC(C)C)C(=O)OC4CCCC4)cc3)c2N)cc1` [Example 64, Cyclopentyl N-[2-(4-{6-amino-5-[(4-methoxyphenyl)carbonyl]-2-oxopyridin-1(2H)-yl}phenyl)ethyl]-L-leucinate], the IC50 on p38 MAP Kinase a was greater than 1000 nM; with THP-1 TNFα release (Homo sapiens, THP-1), 100 to 1000 nM.
The corresponding values for `Nc1c(C(=O)c2ccc(F)cc2)ccc(=O)n1-c1ccc(CCN[C@H](C(=O)OC2CCCC2)c2ccccc2)cc1` [Example 61, Cyclopentyl(2S)-{[2-(4-{6-amino-5-[(4-fluorophenyl)carbonyl]-2-oxopyridin-1(2H)-yl}phenyl)ethyl]amino}(phenyl)ethanoate] are 100 to 1000 nM and less than 100 nM.
The corresponding values for `Cc1cc(C(=O)c2ccc(=O)n(-c3c(F)cc(OCCCN[C@H](C(=O)OC4CCCC4)c4ccccc4)cc3F)c2N)ccc1F` [Example 17, Cyclopentyl(S)-(3-{4-[6-Amino-5-(4-fluoro-3-methylbenzoyl)-2-oxo-2H-pyridin-1-yl]-3,5-difluorophenoxy}propylamino) phenylacetate] are less than 100 nM and less than 100 nM.
`Cc1cc(C(=O)c2ccc(=O)n(-c3ccc(CN[C@H](C(=O)OC4CCCC4)c4ccccc4)cc3)c2N)ccc1F` [Example 4, Cyclopentyl(S)-{4-[6-Amino-5-(3-methyl-4-fluorobenzoyl)-2-oxo-2H-pyridin-1-yl]benzylamino}phenylacetate]: the IC50 at p38 MAP Kinase a is 100 to 1000 nM; with THP-1 TNFα release (Homo sapiens, THP-1), greater than 1000 nM.
The corresponding values for `Cc1ccc(C(=O)c2ccc(=O)n(-c3ccc(CCN[C@@H](CC(C)C)C(=O)OC4CCCC4)cc3)c2N)cc1` [Example 63, Cyclopentyl N-[2-(4-{6-amino-5-[(4-methylphenyl)carbonyl]-2-oxopyridin-1(2H)-yl}phenyl)ethyl]-L-leucinate] are greater than 1000 nM and less than 100 nM.
As to `Nc1c(C(=O)c2ccc(F)cc2)ccc(=O)n1-c1c(F)cc(OC2CCC(N[C@@H](Cc3ccccc3)C(=O)OC3CCCC3)CC2)cc1F` (stereo partly shown) [Example 31, trifluoroacetate], the IC50 at p38 MAP Kinase a is less than 100 nM; with THP-1 TNFα release (Homo sapiens, THP-1), less than 100 nM.
In the case of `Nc1c(C(=O)c2ccc(F)cc2F)ccc(=O)n1-c1c(F)cc(OCCCN[C@H](C(=O)OC2CC3CCC2C3)c2ccccc2)cc1F` (stereo partly drawn) [Example 43, Bicyclo[2.2.1]hept-2-yl(2S)-[(3-{4-[6-amino-5-(2,4-difluorobenzoyl)-2-oxopyridin-1(2H)-yl]-3,5-difluorophenoxy}propyl)amino](phenyl)acetate], the IC50 is less than 100 nM at p38 MAP Kinase a and less than 100 nM in the experiment on THP-1 TNFα release (Homo sapiens, THP-1).
For `CC(C)C[C@@H](NCCCOc1cc(F)c(-n2c(N)c(C(=O)c3ccc(F)cc3F)ccc2=O)c(F)c1)C(=O)OC(C)(C)C` [Example 51, tert-Butyl N-(3-{4-[6-amino-5-(2,4-difluorobenzoyl)-2-oxopyridin-1(2H)-yl]-3,5-difluorophenoxy}propyl)-D-leucinate], the IC50 on p38 MAP Kinase a was less than 100 nM; with THP-1 TNFα release (Homo sapiens, THP-1), less than 100 nM.
For `CC(C)C[C@H](NCCCCCOc1cc(F)c(-n2c(N)c(C(=O)c3ccc(F)cc3)ccc2=O)c(F)c1)C(=O)OC1CCCC1` [Example 55, Cyclopentyl N-(5-{4-[6-amino-5-(4-fluorobenzoyl)-2-oxopyridin-1(2H)-yl]-3,5-difluorophenoxy}pentyl)-L-leucinate], the IC50 was 100 to 1000 nM at p38 MAP Kinase a and less than 100 nM in the experiment on THP-1 TNFα release (Homo sapiens, THP-1).
The corresponding values for `CC(C)C[C@H](NCCCOc1ccc(-n2c(N)c(C(=O)c3ccc(F)cc3)ccc2=O)c(F)c1)C(=O)OC1CCCC1` [Example 66, Cyclopentyl N-[3-(4-{6-amino-5-[(4-fluorophenyl)carbonyl]-2-oxopyridin-1(2H)-yl}-3-fluorophenoxy)propyl]-L-leucinate] are 100 to 1000 nM and 100 to 1000 nM.
`Nc1c(C(=O)c2ccc(F)cc2F)ccc(=O)n1-c1c(F)cc(OCCCN[C@H](C(=O)OC2Cc3ccccc3C2)c2ccccc2)cc1F` [Example 40, 2,3-Dihydro-1H-inden-2-yl (2S)-[(3-{4-[6-amino-5-(2,4-difluorobenzoyl)-2-oxopyridin-1(2H)-yl]-3,5-difluorophenoxy}propyl)amino](phenyl)acetate]: the IC50 was less than 100 nM on p38 MAP Kinase a and less than 100 nM in the experiment with THP-1 TNFα release (Homo sapiens, THP-1).
Consider `CC(C)(C)OC(=O)[C@H](Cc1ccccc1)NCCCOc1cc(F)c(-n2c(N)c(C(=O)c3ccc(F)cc3F)ccc2=O)c(F)c1` [Example 37, tert-Butyl(S)-2-(3-{4-[6-Amino-5-(2,4-difluorobenzoyl)-2-oxo-2H-pyridin-1-yl]-3,5-difluorophenoxy}-propylamino)-3-phenyl propionate], for which the IC50 on p38 MAP Kinase a is less than 100 nM; in the experiment with THP-1 TNFα release (Homo sapiens, THP-1), 100 to 1000 nM.
For `O=C(c1ccc(F)cc1)c1ccc(=O)[nH]c1Nc1c(F)cc(CN[C@@H](Cc2ccccc2)C(=O)OC2CCCC2)cc1F` [Example 71, Cyclopentyl(S)-2-[3,5-Difluoro-4-[3-(4-fluorobenzoyl)-6-oxo-1,6-dihydropyridin-2-ylamino]benzylamino]-3-phenylpropionate], the IC50 at p38 MAP Kinase a was less than 100 nM; with THP-1 TNFα release (Homo sapiens, THP-1), greater than 1000 nM.
Take `CC(C)C[C@H](NC1CCC(Oc2cc(F)c(-n3c(N)c(C(=O)c4ccc(F)cc4)ccc3=O)c(F)c2)CC1)C(=O)OC1CCCC1` (stereo partly drawn) [Example 33, Cyclopentyl(S)-2-(4-{4-[6-Amino-5-(4-fluorobenzoyl)-2-oxo-2H-pyridin-1-yl]-3,5-difluorophenoxy}cyclohexylamino)-4-methylpentanoate]: the IC50 on p38 MAP Kinase a was less than 100 nM; in the experiment with THP-1 TNFα release (Homo sapiens, THP-1) it was less than 100 nM.

(Values after patent publication US8044211B2 (Chroma Therapeutics Ltd., priority 2006, dated 2011).)
